13 molecules from publication PMC6521205 (Viruses, 2019) can be followed below.

The term CC50 denotes the concentration giving 50% cytotoxicity. A high value points to better tolerance by the cells.

The subject of data set [1] is ZIKV H/PAN/2016/BEI-259634. The data set can be described thus: CellTiter-Glo activity assay, ZIKV H/PAN-infected neural stem cells. Format: cell-based, Zika virus. The note with it: read-out: EC50 H/PAN ZIKV. A general note: In ATP-based viability assays light output follows the ATP content of the culture.
Data set [2] has as its system human neural stem cells. The experiment in a line: CellTiter-Glo toxicity in mock-infected neural stem cells. The conditions noted are these: mock-infected neural stem cells, 72 h, CellTiter-Glo, ± SE, n = 4.
Data set [3] has as its system ZIKV PRVABC59/Human/2015/Puerto Rico. The experiment in a line: CellTiter-Glo activity assay, ZIKV PRVABC59-infected neural stem cells. Format: cell-based, Zika virus. The note with it: for EC50: human neural stem cells, MOI 10, 72 h post-infection, CellTiter-Glo, ± SE, n = 4.
The test system of data set [4] is ZIKV H/PAN/2016/BEI-259634. The experiment in a line: Plaque assay of ZIKV titers from treated hNSC cultures. Format: cell-based, Zika virus. The note with it: human fetal neural stem cells, H/PAN MOI 0.1, 48 h post-infection.
The subject of data set [5] is ZIKV H/PAN/2016/BEI-259634. Format: cell-based, Zika virus. The note with it: GSC 387 cells, H/PAN MOI 10, 72 h post-infection.
Data set [6] deals with ZIKV RdRP (Zika virus, UniProt A0A024B7W1). The data set can be described thus: Single nucleotide incorporation assay. Format: biochemical. The note with it: 150 µM nucleotide, 37 °C; for observed rate of incorporation, kobs: 1 µM RdRP, 200 nM P/T substrate, single exponential fit, n = 2.
Chain of ZIKV RdRP (A0A024B7W1 2772-3423): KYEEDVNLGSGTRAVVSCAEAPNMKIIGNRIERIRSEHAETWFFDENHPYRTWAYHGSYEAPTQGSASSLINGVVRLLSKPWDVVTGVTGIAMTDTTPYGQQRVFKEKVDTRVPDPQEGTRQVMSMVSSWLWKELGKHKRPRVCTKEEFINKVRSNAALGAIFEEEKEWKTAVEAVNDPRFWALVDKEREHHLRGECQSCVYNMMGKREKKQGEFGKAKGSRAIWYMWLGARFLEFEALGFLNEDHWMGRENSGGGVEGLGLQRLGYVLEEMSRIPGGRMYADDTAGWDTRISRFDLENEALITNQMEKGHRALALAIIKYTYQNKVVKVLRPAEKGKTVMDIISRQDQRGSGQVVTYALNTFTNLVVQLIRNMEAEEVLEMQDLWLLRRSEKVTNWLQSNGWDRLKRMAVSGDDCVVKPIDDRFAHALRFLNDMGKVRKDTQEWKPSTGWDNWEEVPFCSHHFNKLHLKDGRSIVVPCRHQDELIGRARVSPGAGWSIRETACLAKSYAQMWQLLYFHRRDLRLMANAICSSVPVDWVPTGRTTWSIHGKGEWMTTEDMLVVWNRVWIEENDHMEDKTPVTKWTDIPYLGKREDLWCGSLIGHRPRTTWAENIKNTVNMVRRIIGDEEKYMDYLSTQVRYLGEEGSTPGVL
The nature of data set [7]: CellTiter-Glo toxicity in mock-infected neural stem cells. The conditions noted are these: human.
Where [8] appears, read: human neural stem cells, MOI 10, 72 h post-infection, CellTiter-Glo, ± SE, n = 4.
Where [9] appears, read: Zika virus, Neural stem cell, in Homo sapiens.

Like-named read-outs stand apart in the source and are kept apart here.

Turning to `C#CC1(O)C(O)C(COP(=O)(NC(C)C(=O)OC(C)C)Oc2ccccc2)OC1n1ccc(=O)[nH]c1=O` (centres unmarked) [2′-C-Ethynyluridine Aryloxy Phosphoramidate], the EC50 in data set [1] (setting [8]) was determined as 0.8 ± 1 µM. The CC50 in data set [2] was > 50 µM.
Turning to `CC(C)OC(=O)C(C)NP(=O)(OCC1OC(n2cnc3c(N)ncnc32)C(C)(O)C1O)Oc1ccccc1` (centres unmarked) [2′-C-Methyladenosine aryloxyl phosphoramidate], the EC50 in data set [3] came to 10 ± 1 µM; in data set [1] (setting [8]), 18 ± 1 µM. This molecule also showed a half-maximal cytotoxic concentration (CC50) in data set [2] of 42 ± 1 µM.
For the molecule `CC(C)OC(=O)C(C)NP(=O)(OCC1OC(n2ccc(N)nc2=O)C(C)(O)C1O)Oc1ccccc1` (centres unmarked) [2′-C-Methylcytidine aryloxyl phosphoramidate], the EC50 is 48 ± 1 µM in data set [3] and > 50 µM in data set [1] (setting [8]).
With `CC(C)OC(=O)C(C)NP(=O)(OCC1OC(n2ccc(=O)[nH]c2=O)C(C)(O)C1O)Oc1ccccc1` (centres unmarked) [2′-C-methyluridine aryloxyl phosphoramidate], the EC50 in data set [3] is 1 ± 1 µM; in data set [1] (setting [8]) it was 2 ± 1 µM. The “ZIKV titers by plaque assay” value in data set [4] (10 µM compound) and in data set [4] (30 µM compound) was “undetectable levels” each time. The “protection from ZIKV-induced cytopathic effect” value in data set [5] (10 µM compound) is recorded as “better able to protect against ZIKV-induced cytopathic effect”; in data set [5] (30 µM compound), “able to protect against the cytopathic effect”. Moreover, the cytotoxic concentration (CC50) in data set [2] is 47 ± 1 µM.
For `C[C@@]1(O)[C@H](O)[C@@H](COP(=O)(O)OP(=O)(O)OP(=O)(O)O)O[C@H]1n1ccc(=O)[nH]c1=O` [2′-C-methyluridine triphosphate], in data set [6], the “observed rate of incorporation, kobs” value is on record as 0.016 ± 0.001 % incorporation min^−1; the “maximal incorporation (plateau)” value is 35%; the “time to half maximal incorporation” value is listed as ~ 45 min.
As for `COC1C(O)C(COP(=O)(NC(C)C(=O)OC(C)C)Oc2ccccc2)OC1n1ccc(N)nc1=O` (centres unmarked) [2′-O-Methylcytidine aryloxyl phosphoramidate], the EC50 in data set [3] and in data set [1] (setting [8]) was > 50 µM throughout. The CC50 in data set [2] was > 50 µM.
With `C[C@@]1(F)[C@H](O)[C@@H](COP(=O)(O)OP(=O)(O)OP(=O)(O)O)O[C@H]1n1ccc(=O)[nH]c1=O` [2′-fluoro-2′-C-methyluridine triphosphate], in data set [6], the “observed rate of incorporation, kobs” value was determined as 0.0085 ± 0.001 % incorporation min^−1; the “maximal incorporation (plateau)” value was determined as 15%; the “time to half maximal incorporation” value was ~90 min.
For the molecule `CC(C)OC(=O)C(C)NP(=O)(OCC1CC(O)C(n2cnc3c(N)ncnc32)O1)Oc1ccccc1` (centres unmarked) [3′-Deoxyadenosine aryloxyl phosphoramidate], the EC50 in data set [3] and in data set [1] (setting [8]) was > 50 µM each time. Besides, in data set [2], the CC50 is > 50 µM.
Turning to `CC(C)OC(=O)C(C)NP(=O)(OCC1CC(O)C(n2ccc(N)nc2=O)O1)Oc1ccccc1` (centres unmarked) [3′-Deoxycytidine aryloxyl phosphoramidate], the EC50 in data set [3] and in data set [1] (setting [8]) was > 50 µM in each case. Further, the CC50 in data set [2] was > 50 µM.
As for `COC1C(COP(=O)(NC(C)C(=O)OC(C)C)Oc2ccccc2)OC(n2ccc(=O)[nH]c2=O)C1O` (centres unmarked) [3′-O-Methyluridine aryloxyl phosphoramidate], the EC50 in data set [3] and in data set [1] (setting [8]) was > 50 µM in each case. Further, the CC50 in data set [2] is > 50 µM.
In the case of `CSCCOP(=O)(NCCc1c[nH]c2ccccc12)OCC1OC(n2ccc(=O)[nH]c2=O)C(C)(O)C1O` (centres unmarked) [(5-(2,4-dioxo-3,4-dihydropyrimidin-1(2H)-yl)-3,4-dihydroxy-4-methyltetrahydrofuran-2-yl)methyl (2-(methylthio)ethyl) (2-(1H-indol-3-yl)ethyl)phosphoramidate], the EC50 was > 50 µM in data set [3] (setting [9]) and > 50 µM in data set [1] (Zika virus, Neural stem cell, human neural stem cells, MOI 10, 72 h post-infection, CellTiter-Glo, ± SE, n = 4). Moreover, the “anti-ZIKV activity (in words)” value in data set [3] (neural stem cells, PRVABC59 and H/PAN strains, highest concentration 50 µM) was “completely abolished activity”. In data set [7] (mock-infected neural stem cells (NSCs)), the CC50 at 72 h is > 50 µM.
`CC(C)OC(=O)[C@H](C)N[P@](=O)(OC[C@H]1O[C@@H](n2ccc(=O)[nH]c2=O)[C@](C)(F)[C@@H]1O)Oc1ccccc1` [Sofosbuvir, reference compound]: the EC50 in data set [3] (setting [9]) is 35 ± 1 µM; in data set [1] (Zika virus, Neural stem cell, 72 h), 46 ± 1 µM. Besides, the “ZIKV titers by plaque assay” value in data set [4] (30 µM compound) is “undetectable levels”. In addition, in data set [5] (30 µM compound), the “protection from ZIKV-induced cytopathic effect” value was “able to protect against the cytopathic effect”. In data set [7], the CC50 at 72 h was > 50 µM.
With `O=c1ccn([C@@H]2O[C@H](COP(=O)(O)OP(=O)(O)OP(=O)(O)O)[C@@H](O)[C@H]2O)c(=O)[nH]1` [UTP], in data set [6], the “observed rate of incorporation, kobs” value is given as 0.151 ± 0.004 % incorporation min^−1; the “time to full incorporation” value is reported as ~ 30 min; the “time to half maximal incorporation” value is ≤ 5 min.
